Measurements from paper PMC11477218 (International Journal of Molecular Sciences, 2024).
Read-outs that look alike come from different tables or passages of the source.

Molecular target: T1, 20S proteasome β5 subunit (Homo sapiens, UniProt P28074)
T1 construct: gene PSMB5; human erythrocyte 20S proteasome (constitutive); with other subunits of the 20S proteasome
T1 sequence (P28074 60-263): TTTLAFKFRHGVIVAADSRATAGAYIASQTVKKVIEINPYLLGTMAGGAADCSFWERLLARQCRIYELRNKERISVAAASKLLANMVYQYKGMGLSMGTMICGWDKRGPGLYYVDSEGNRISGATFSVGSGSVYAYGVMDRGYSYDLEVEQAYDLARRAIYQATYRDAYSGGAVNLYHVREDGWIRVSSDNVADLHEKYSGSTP
Test: fluorogenic Suc-LLVY-AMC chymotrypsin-like activity assay
Type: biochemical

Row | IC50 (read-out: IC50) [µM] | Compound | IC50 [µM]
1 | 12.2 ± 1.8 | COc1cc2ccn(C/C=C/C(=O)NCCC(C)C)c(=O)c2cc1OC [AM12] | 
2 |  | O=c1c(O)c(-c2ccc(O)c(O)c2)oc2cc(O)cc(O)c12 [quercetin] | 2.96 ± 0.77
